Source: ChEMBL document CHEMBL1909294, “Translating clinical findings into knowledge in drug safety evaluation--drug induced liver injury prediction system (DILIps)” (PLoS Comput Biol, 2011)
Where a SMILES comes first, the peptide text is derived from it. Bridges are numbered along the chain shown (N, C = ends). [ ]: non-standard residue; d: D form. hArg = N=C(N)NCCCC[C@H](N)C(=O)O; Mpa = O=C(O)CCS

Columns and labels:
Hepatotoxicity [1] = system: Hepatotoxicity;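 as to HepSE cholecystitis: Cholecystitis-related hepatic side effect score drawn from the DILIps (drug-induced liver injury prediction) training data set; call rule not given here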;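 as to HepSE cirrhosis: cirrhosis hepatic side effect score taken from the DILIps (drug-induced liver injury prediction) training set; call rule not given here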; as to HepSE hepatic failure: call rule not given here;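 as to HepSE hepatitis: Hepatitis-related hepatic side effect score taken from the training data of DILIps, a prediction system for drug-induced liver injury; call rule not given here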;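 as to HepSE jaundice: Jaundice-related hepatic side-effect score drawn from the training data of the DILIps (drug-induced liver injury prediction system); call rule not given here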; as to HepSE liver disease: call rule not given here;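 as to HepSE liver function tests abnormal: hepatic side effect score taken from the DILIps (drug-induced liver injury prediction system) training data, here covering abnormal liver function test findings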
Hepatotoxicity [2] = system: Hepatotoxicity; remark: listed apart in the source;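 as to HepSE cholecystitis: Cholecystitis-related hepatic side effect score drawn from the DILIps (drug-induced liver injury prediction) training data set; call rule not given here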;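 as to HepSE cirrhosis: cirrhosis hepatic side effect score taken from the DILIps (drug-induced liver injury prediction) training set; call rule not given here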; as to HepSE hepatic failure: call rule not given here;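 as to HepSE hepatitis: Hepatitis-related hepatic side effect score taken from the training data of DILIps, a prediction system for drug-induced liver injury; call rule not given here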;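 as to HepSE jaundice: Jaundice-related hepatic side-effect score drawn from the training data of the DILIps (drug-induced liver injury prediction system); call rule not given here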; as to HepSE liver disease: call rule not given here;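 as to HepSE liver function tests abnormal: hepatic side effect score taken from the DILIps (drug-induced liver injury prediction system) training data, here covering abnormal liver function test findings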
Hepatotoxicity [3] = system: Hepatotoxicity; remark: listed apart in the source;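 as to HepSE cholecystitis: Cholecystitis-related hepatic side effect score drawn from the DILIps (drug-induced liver injury prediction) training data set; call rule not given here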;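 as to HepSE cirrhosis: cirrhosis hepatic side effect score taken from the DILIps (drug-induced liver injury prediction) training set; call rule not given here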; as to HepSE hepatic failure: call rule not given here;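 as to HepSE hepatitis: Hepatitis-related hepatic side effect score taken from the training data of DILIps, a prediction system for drug-induced liver injury; call rule not given here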;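 as to HepSE jaundice: Jaundice-related hepatic side-effect score drawn from the training data of the DILIps (drug-induced liver injury prediction system); call rule not given here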; as to HepSE liver disease: call rule not given here;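 as to HepSE liver function tests abnormal: hepatic side effect score taken from the DILIps (drug-induced liver injury prediction system) training data, here covering abnormal liver function test findings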
Hepatotoxicity [4] = system: Hepatotoxicity; remark: listed apart in the source;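 as to HepSE cholecystitis: Cholecystitis-related hepatic side effect score drawn from the DILIps (drug-induced liver injury prediction) training data set; call rule not given here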; as to HepSE hepatic failure: call rule not given here;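 as to HepSE hepatitis: Hepatitis-related hepatic side effect score taken from the training data of DILIps, a prediction system for drug-induced liver injury; call rule not given here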;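 as to HepSE jaundice: Jaundice-related hepatic side-effect score drawn from the training data of the DILIps (drug-induced liver injury prediction system); call rule not given here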; as to HepSE liver disease: call rule not given here;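 as to HepSE liver function tests abnormal: hepatic side effect score taken from the DILIps (drug-induced liver injury prediction system) training data, here covering abnormal liver function test findings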
Hepatotoxicity [5] = system: Hepatotoxicity; remark: listed apart in the source; as to HepSE hepatic failure: call rule not given here; as to HepSE liver disease: call rule not given here
Hepatotoxicity [6] = system: Hepatotoxicity; remark: listed apart in the source; as to HepSE hepatic failure: call rule not given here; as to HepSE liver disease: call rule not given here
Hepatotoxicity [7] = system: Hepatotoxicity; remark: listed apart in the source
Hepatotoxicity [8] = system: Hepatotoxicity; remark: listed apart in the source
Hepatotoxicity [9] = system: Hepatotoxicity; remark: listed apart in the source
Hepatotoxicity [10] = system: Hepatotoxicity; remark: listed apart in the source
Hepatotoxicity [11] = system: Hepatotoxicity; remark: listed apart in the source
Hepatotoxicity [12] = system: Hepatotoxicity; remark: listed apart in the source
Hepatotoxicity [13] = system: Hepatotoxicity; remark: listed apart in the source
Hepatotoxicity [14] = system: Hepatotoxicity; remark: listed apart in the source

SMILES	HepSE_cholecystitis (Hepatotoxicity [1])	HepSE_liver disease (Hepatotoxicity [2])	HepSE_hepatic failure (Hepatotoxicity [3])	HepSE_liver function tests abnormal (Hepatotoxicity [4])	HepSE_jaundice (Hepatotoxicity [5])	HepSE_hepatitis (Hepatotoxicity [6])	HepSE_cirrhosis (Hepatotoxicity [7])	HepSE_bilirubinemia (Hepatotoxicity [8])	HepSE_hepatic necrosis (Hepatotoxicity [9])	HepSE_hepatomegaly (Hepatotoxicity [10])	HepSE_elevated liver function tests (Hepatotoxicity [11])	HepSE_liver fatty (Hepatotoxicity [12])	HepSE_Combined Scores (Hepatotoxicity [13])	HepSE_cholelithiasis (Hepatotoxicity [14])
CCCCC[C@H](O)/C=C/[C@@H]1[C@H]2C/C(=C/CCCC(=O)O)O[C@H]2C[C@H]1O [EPOPROSTENOL]	0	0	1	0	0	0	0	0	0	0	0	0	1	0
CCCCc1ncc(/C=C(\Cc2cccs2)C(=O)O)n1Cc1ccc(C(=O)O)cc1 [EPROSARTAN]	0	0	0	0	0	0	0	0	0	0	0	0	0	0
N=C(N)NCCCC[C@@H]1NC(=O)CCSSC[C@@H](C(N)=O)NC(=O)[C@@H]2CCCN2C(=O)[C@H](Cc2c[nH]c3ccccc23)NC(=O)[C@H](CC(=O)O)NC(=O)CNC1=O [EPTIFIBATIDE] ([Mpa][hArg]GDWPC-NH2; disulfide 1-7)	0	0	0	0	0	0	0	0	0	0	0	0	0	0
CN1C[C@H](C(=O)N[C@]2(C)O[C@@]3(O)[C@@H]4CCCN4C(=O)[C@H](Cc4ccccc4)N3C2=O)C=C2c3cccc4[nH]cc(c34)C[C@H]21 [ERGOTAMINE]	0	0	0	0	0	0	0	0	0	0	0	0	0	0
C#Cc1cccc(Nc2ncnc3cc(OCCOC)c(OCCOC)cc23)c1 [ERLOTINIB]	0	1	1	0	0	0	0	0	0	0	0	0	2	0
CC[C@H]1OC(=O)[C@H](C)[C@@H](O[C@H]2C[C@@](C)(OC)[C@@H](O)[C@H](C)O2)[C@H](C)[C@@H](O[C@@H]2O[C@H](C)C[C@H](N(C)C)[C@H]2O)[C@](C)(O)C[C@@H](C)C(=O)[C@H](C)[C@@H](O)[C@]1(C)O [ERYTHROMYCIN]	0	0	0	0	0	1	0	0	0	0	0	0	1	0
COC(=O)CCc1ccc(OCC(O)CNC(C)C)cc1 (stereo unspecified) [ESMOLOL]	0	0	0	0	0	0	0	0	0	0	0	0	0	0
Clc1ccc2c(c1)C(c1ccccc1)=NCc1nncn1-2 [ESTAZOLAM]	0	0	0	0	0	0	0	0	0	0	0	0	0	0
C[C@]12CC[C@@H]3c4ccc(O)cc4CC[C@H]3[C@@H]1CC[C@@H]2O [ESTRADIOL]	0	0	0	0	1	1	0	0	0	0	1	0	3	0
